Reference: paper PMC3425516 (PLoS ONE, 2012)
Several values for one entry are separate records, joined by “and”; a condition that tells them apart may be missing. Identical values can stand only once.

Legend:
[1] = Body weight and adverse effects in xenograft study; format: in vivo, nude mice; conditions: HCT116 xenograft mice, oral daily treatment
Protocol: (A) Tumors were measured regularly and growth delay was calculated for treatment groups relative to control tumors (TGD). (B) Kaplan-Meier survival analysis was based on the tumor growth endpoint. (C) Inhibition of tumor growth curves represented a mean±SEM and percentage change in mean tumor volume (percent TGI). (D) Body weights were measured daily during the first week and then 2 times per week. The body weight ratio was calculated relative to the baseline measurement.
(§1) Once a tumor was palpable with the size of approximately 55 mm^3, mice were randomized into vehicle control and treatment groups (8 mice per group). Control mice received the vehicle (0.5% carboxymethyl cellulose +0.1% Tween 80). Tumors in all 3 groups were allowed to reach an endpoint volume of 1,200 mm^3.

HCT116 cells [2] = experiment: Western blot histone H3 and α-tubulin acetylation; format: cell-based, human; conditions: 24 h
Protocol: (§2) For total lysate, cells were lysed with the 120 µL ice-cold lysis buffer [10 mmol/L Tris-HCl (pH 7.4), 150 mmol/L NaCl, 1 mmol/L EGTA, 1 mmol/L phenylmethylsulfonyl fluoride, 10 µg/mL aprotinin, 10 µg/mL leupeptin, 1 mM sodium orthovandate, 1 mM NaF, and 1% Triton X-100]. Cell lysates were centrifuged at 13,000 rpm for 30 min. For Western blot analysis, the amount of protein (40 µg) was separated by electrophoresis in a 10% or 15% polyacrylamide gel and transferred to a polyvinylidene difluoride (PVDF) membrane. After 1 h incubation at room temperature in PBS/5% nonfat milk, the membrane was washed with PBS/0.1% and incubated with the indicated antibodies at 4°C overnight. After washings with PBS/0.1% Tween 20, the corresponding secondary antibodies were applied to the membranes for 1 h at room temperature. The membranes were then washed with PBS/0.1% Tween 20 and the detection of signal was done with an enhanced chemiluminescence detection kit (Amersham, Buckinghamshire, UK).

HCT116 cells [3] = experiment: Sulforhodamine B cell growth assay; format: cell-based; conditions: Homo sapiens, HCT-116, 48 h
Protocol: HCT116, MDAMB231 and NCI-ADR cells were seeded in 96-well plates in medium with 5% fetal bovine serum overnight. Cells were fixed with 10% trichloroacetic representing cell population at the time of drug treatment (T 0). […] Excess Sulforhodamine B was washed away by 1% acetic acid and dye-containing cells were lysed with 10 mmol/L Trizma base. […] By measuring time zero (T 0), control growth (C), and cell growth in the presence of the drug (Tx), the percentage growth was calculated. Percentage growth inhibition was calculated as 100-[(Tx–T 0)/(C-T 0)]×100.

HCT116 cells [4] = experiment: Flow cytometry cell cycle / sub-G1 analysis; format: cell-based, human
Protocol: After centrifugation, cells were incubated in 0.1 mol/L phosphate-citric acid buffer [0.2 mol/L NaHPO4, 0.1 mol/L citric acid (pH 7.8)] for 20 min at room temperature. Then, the cells were centrifuged and resuspended with 0.5 mL PI solution containing Triton X-100 (0.1%, v/v), RNase (100 µg/mL), and PI (80 µg/mL). DNA content was analyzed with the FACScan and CellQuest software (Becton Dickinson).

[5] = test system: human HCT116 colorectal cancer xenograft; experiment: HCT116 xenograft, tumor growth delay to 1,200 mm^3 endpoint; format: in vivo, nude mice
Protocol: The human HCT116 colorectal adenocarcinoma cells used for implantation were harvested during log phase growth and resuspended in phosphate-buffered saline at 5×10^7 cells/mL. Each mouse was injected s.c. in the right flank with 1.0×10^7 cells (0.2 mL cell suspension). Tumors were monitored twice weekly and then daily as their volumes approached 1,200 mm^3. Tumor size, in mm^3, was calculated from: where w = width and l = length in mm of the tumor. Tumor volume = (w^2×l)/2.
The logrank test was used to determine the statistical significance of the difference between the TTE values of two groups, except any NTR deaths. […] The two-tailed statistical analyses were conducted at P = 0.05. Kaplan-Meier plots show the percentage of animals remaining in the study versus time. The Kaplan-Meier plots use the same data set as the logrank test.
as §1

HCT116 xenograft tumors = experiment: Western blot of HCT116 xenograft tumor tissues; format: in vivo, nude mice; conditions: 200 mg/kg oral daily for 7 days
Protocol: as §2, with “For Western blot analysis, the amount of protein (40 µg) was separated by electrophoresis in a 10% or 15% polyacrylamide gel and transferred to a polyvinylidene difluoride (PVDF) membrane.” left out
as §1

GI50 (HCT116 cells [3]): 820 ± 70 nM
SMILES: O=C(CCCCCCC(=O)Nc1ccccc1)NO [SAHA, suberoylanilide hydroxamic acid, reference compound]
body weight and other adverse effects [1]: No significant body weight difference or other adverse effects
α-tubulin acetylation (western blot) (HCT116 cells [2]): exhibited more potent α-tubulin acetylation than MPT0E028
sub-G1 population (flow cytometry) (HCT116 cells [4]): weaker effect and delayed cytotoxicity
Median TTE ([5]; 200 mg/kg po qd to endpoint 1200 mm^3): 27.0 days
No. of CR (complete regression) ([5]; 200 mg/kg po qd, 8 mice per group): 0
%TGD (tumor growth delay) ([5]; 200 mg/kg po qd, [(T-C)/C]×100): 63%
T-C ([5]; 200 mg/kg po qd, median TTE treated versus control): 10.0 days and 10 days
expression of caspase 3, PARP, acetyl-histone H3 and acetyl-tubulin in xenograft tumors (HCT116 xenograft tumors): acetyl-µ-tubulin were found more profoundly
